The source of these data is patent publication US20230097992A1, “BIVALENT EGF FUSION TOXINS” (The Regents of the University of Colorado, a body corporate, priority 2020, published 2023).

Entries after “also recorded” stand apart in the source; their conditions may differ.

The test system of experiment [1] is HNSCC Cal27 tongue-orthotopic tumors. The experiment is described as follows: Tongue-orthotopic tumor-bearing NSG mouse model. The class given is in vivo, NSG mice. Particulars: for Median survival time: Tongue orthotopic model, fusion toxin or DT390 50 μg/kg IP, erlotinib 20 mg/kg gavage, once daily for 10 days from day 4; for tongue SCC tumor volume versus mono-EGF-IT and DT390 groups: second cohort, euthanized 8 days after tumor cell inoculation. As for the experimental part: FIGS. 7A-7C presents the data from two animal studies of in vivo efficacy analysis of the human EGF fusion toxins against tongue squamous cell carcinomas (SCCs) in NSG mice. FIG. 7A presents the data from in vivo efficacy analysis of the human EGF fusion toxins using human EGFR-positive HNSCC Cal27 tongue-orthotopic tumor-bearing NSG mouse model. Eight million human EGFR-positive HNSCC Cal27 cells were injected into the tongue on day 0. Mice were injected intraperitoneally (IP) with the EGF fusion toxin or DT390 at 50 μg/kg, starting on day 4, once daily for 10 consecutive days. […] The schedule of the fusion toxin and tumor cell injection is pictured in the schematic below the survival curve. The vertical arrows indicate the days on which the tumor cells or the fusion toxins were injected. *P<0.05; **P<0.01; ***P<0.001; ****P<0.0001; ns: not significant.
FIG. 7B presents the data from a further in vivo efficacy analysis of the human EGF fusion toxins. […] The mice were euthanized on day 8 after tumor cell injection when the first mouse in the DT390 group reached the end point. The photograph depicts tongue squamous cell carcinomas (SCCs) (circled by the black dotted lines). Scale bar: 1 cm. FIG. 7C presents the FIG. 7B tumor volume comparison of the treatment groups. *P<0.05; **P<0.01
(§1) HNSCC tumor cells were injected via the following routes: 1) Flank-xenograft solid tumor model: eight million human HNSCC Cal27 tumor cells were subcutaneously injected into the right flank at day 0. The tumor-bearing mice were randomly divided into the four experimental groups when the tumors were palpable at day 3. The tumor volume was measured using digital vernier calipers every 3 days and calculated according to the formula: volume (mm^3)=(length×width×width)/2. 2) Tongue-orthotopic solid tumor model: eight million human HNSCC Cal27 tumor cells in 50 μl DMEM were injected into the tongue at day 0 following isoflurane anesthesia and the tumor-bearing mice were randomly divided into the planned four experimental groups at day 3. 3) Experimental metastasis model: one million human HNSCC Cal27 tumor cells in 200 μl DMEM were intravenously injected at day 0 via tail vein and the tumor-bearing mice were randomly divided into the four experimental groups at day 3.
(§2) Mono-EGF-IT (mEGF-IT), bEGF-IT, or DT390 was intraperitoneally injected (IP) starting at day 4 at 50 μg/kg, once daily for 10 consecutive days. […] The injected animals were observed daily for signs and symptoms of illness and scored at least twice weekly based on the parameters as previously reported (Peraino et al. (2013), J. Immunol. Methods 398-399, 33-43, which is hereby incorporated by reference in its entirety; Wang et al., 2015). The animals were humanely euthanized when the score exceeded the limit or the animal lost more than 15% of its pre-injection body weight. In addition, to assess whether the fusion toxins are toxic to the animals, NSG mice injected with the fusion toxins only were also included as control.
To assess the in vivo efficacy of the human EGF fusion toxins to the xenograft tumors in the head and neck area, a tongue-orthotopic tumor-bearing NSG mouse model was used as a second efficacy model. Eight million HNSCC Cal27 cells were injected into the tongue at day 0. The EGF fusion toxins were injected intraperitoneally (IP) starting on day 4 at 50 μg/kg daily for 10 consecutive days. Since the resulting tongue-orthotopic tumors severely affected the animal's eating and drinking, animals were euthanized earlier. Therefore, the median survival prolongation was not as impressive as that observed in the flank-xenograft solid tumor-bearing NSG mouse model. […] To further characterize the effect of the EGF fusion toxins on tumor volume, the orthotopic tongue SCC model study was repeated, and the mice were euthanized 8 days after tumor cell inoculation.

Experiment [2] has as its system HNSCC Cal27 cells injected intravenously (lung metastases). The experiment is described as follows: Experimental lung metastasis NSG mouse model. The class given is in vivo, NSG mice. As to conditions: for Median survival time: Lung metastasis model, fusion toxin or DT390 50 μg/kg IP, erlotinib 20 mg/kg gavage, once daily for 10 days from day 4; for number of metastases in the lungs: second cohort, euthanized 10 days after tumor cell inoculation. As for the experimental part:
FIG. 8A-C presents data from in vivo efficacy analysis of the human EGF fusion toxins using an experimental lung metastasis NSG mouse model. FIG. 8A presents data from a first animal study for survival curve analysis. NSG mice were IV injected with one million human EGFR^+ HNSCC Cal27 cells on day 0. Mice were injected intraperitoneally (IP) with the EGF fusion toxin or DT390 at 50 μg/kg, once daily for 10 consecutive days starting on day 4 after the tumor cell injection. […] The schedule of the fusion toxin and tumor cell injection is pictured in the schematic below the survival curve. The vertical arrows indicate the days on which the tumor cells or the fusion toxins were injected. *P<0.05; **P<0.01; ***P<0.001; ****P<0.0001. The P-values for the survival curves were calculated using the Mantel-Cox log-rank test (GraphPad Prism9.0).
FIGS. 8B and C present data from a second animal study for a pathology analysis. […] The mice were euthanized on day 10 after tumor cell injection when the first mouse in the DT390 group reached the end point. FIG. 8B presents H&E pictures of lung metastases. Metastases are indicated in the upper panels by black arrowheads. Scale bar: 500 μm. The lower panels are higher magnification pictures of the area in black rectangles in the upper panels. […] Error bars indicate standard deviation (SD).
as §1, §2
The third in vivo efficacy model was an experimental metastasis model. One million of HNSCC Cal27 tumor cells were intravenously injected via the tail vein of NSG mice at day 0. The EGF fusion toxins were injected intraperitoneally (IP) starting on day 4 at 50 μg/kg daily for 10 consecutive days. […] To further assess the effects of the fusion toxins on metastasis, the experimental metastasis study was repeated with a second cohort of NSG mice, and all mice were euthanized 10 days after tumor cell inoculation, when the first mouse in the DT390 group reached the end point. The data are depicted in FIGS. 8B and C.

On to `C#Cc1cccc(Nc2ncnc3cc(OCCOC)c(OCCOC)cc23)c1` [Erlotinib], for which, in experiment [1], the Median survival time is recorded as 16.5 days; the “tongue SCC tumor volume versus mono-EGF-IT and DT390 groups” value is given as “significantly smaller”. In experiment [2], the Median survival time amounted to 30 days and the “number of metastases in the lungs” value is “reduced compared with the DT390-negative control group”.
With “Bi-EGF IT: DT390 joined by G4S to two human EGF domains linked by (G4S)3, C-terminal 6×His tag; SEQ ID NO: 10”, in experiment [1], the Median survival time is on record as 15 days; the “tongue SCC tumor volume versus mono-EGF-IT and DT390 groups” value is reported as “significantly smaller”. In addition, in experiment [2], the Median survival time is 38 days and the “number of metastases in the lungs” value was “reduced compared with the DT390-negative control group; also recorded: reduction was greater in the bi-EGF-IT group than in the mono-EGF-IT group”.
